According to EPA's ToxRefDB 2:

What was measured:
[1] = tested on: mouse; settings: Subchronic oral toxicity in rodents, other, Feed, dose end: 13 week, group: systemic
[2] = tested on: rat; settings: Subchronic oral toxicity in rodents, sprague dawley, Feed, dose end: 90 day, group: systemic
[3] = tested on: rat; settings: Subchronic oral toxicity in rodents, sprague dawley, Feed, dose end: 13 week, group: systemic
[4] = tested on: dog; settings: Chronic toxicity; beagle; Oral; Feed; dose end: 52 week; group: systemic; systemic / organ weight / liver / absolute + systemic / organ weight / liver / relative to body weight + systemic / pathology gross / liver…
[5] = tested on: rabbit; settings: Prenatal developmental toxicity study, new zealand white, Oral, Gavage/Intubation, dose end: 18 GD
[6] = tested on: rat; settings: Multigenerational reproductive toxicity study, sprague dawley, Oral, Feed, dose end: 2 generation
[7] = tested on: rat; settings: Combined chronic toxicity/carcinogenicity, sprague dawley, Oral, Feed, dose end: 104 week
[8] = tested on: mouse; settings: Sub-acute repeat dose toxicity, other, Oral, Feed, dose end: 4 week, group: systemic
[9] = tested on: mouse; settings: Carcinogenicity; b6c3f1; Oral; Feed; dose end: 104 week; group: systemic; systemic / pathology microscopic / liver / cellular alteration + systemic / pathology microscopic / liver / fatty change + systemic / …
[10] = tested on: rat; settings: Prenatal developmental toxicity study, sprague dawley, Oral, Gavage/Intubation, dose end: 16 GD
[11] = tested on: mouse; settings: Carcinogenicity; cd1; Oral; Feed; dose end: 18 month; group: systemic; systemic / organ weight / liver / absolute + systemic / organ weight / liver / relative to body weight + systemic / pathology microscopic / …
[12] = tested on: rat; settings: Subchronic oral toxicity in rodents, sprague dawley, Feed, dose end: 90 day, group: systemic, systemic / hematology / erythrocyte (rbc) count differential / erythrocyte (rbc) + systemic / hematology / hematocrit (hct) / hematocrit (…
[13] = tested on: dog; settings: Subchronic oral toxicity in nonrodent, beagle, Feed, dose end: 13 week, group: systemic, systemic / clinical chemistry / alanine aminotransferase (alt/sgpt) / alanine aminotransferase (alt/sgpt) + systemic / clinical chemistry / …
[14] = tested on: dog; settings: Chronic toxicity, beagle, Oral, Feed, dose end: 52 week, group: systemic
[15] = tested on: rat; settings: Combined chronic toxicity/carcinogenicity; other; Oral; Feed; dose end: 22 month; group: systemic; systemic / hematology / erythrocyte (rbc) count differential / erythrocyte (rbc) + systemic / hematology / hematocrit (hct) / hematocrit (…
[16] = tested on: rat; settings: Subchronic oral toxicity in rodents, sprague dawley, Feed, dose end: 90 day, group: systemic; remark: listed apart in the source
[17] = tested on: rabbit; settings: Prenatal developmental toxicity study, new zealand white, Oral, Gavage/Intubation, dose end: 19 GD
[18] = systemic / in life observation / body weight / body weight + systemic / in life observation / body weight / body weight gain + systemic / in…
[19] = systemic / pathology microscopic / liver / hypertrophy
[20] = systemic / organ weight / liver / absolute
[21] = systemic / organ weight / liver / absolute + systemic / organ weight / kidney / absolute + systemic / organ weight / kidney / relative to …
[22] = group: developmental, developmental / developmental malformation / bone / full supernumerary
[23] = group: developmental, developmental / developmental malformation / bone / full supernumerary + systemic / in life observation / body weight / fetal weight
[24] = group: maternal, systemic / in life observation / body weight / body weight gain + systemic / in life observation / food consumption / food consumption + …
[25] = group: offspring, developmental / developmental malformation / trunk / [other] + developmental / developmental malformation / ureter / hydroureter + systemic…
[26] = group: parental, systemic / in life observation / body weight / body weight + systemic / organ weight / pituitary gland / relative to body weight + systemic…
[27] = group: parental, systemic / organ weight / pituitary gland / relative to body weight + systemic / in life observation / water consumption / water consumption…
[28] = group: cholinesterase, cholinesterase / cholinesterase / cholinesterase / erythrocyte cholinesterase (che) + cholinesterase / cholinesterase / cholinesterase / …
[29] = group: systemic, systemic / pathology microscopic / liver / eosinophilic focus
[30] = group: systemic, systemic / pathology microscopic / liver / eosinophilic focus + systemic / pathology microscopic / liver / hypertrophy
[31] = systemic / organ weight / liver / absolute + systemic / organ weight / liver / relative to body weight + systemic / pathology microscopic / …
[32] = group: developmental, developmental / developmental malformation / bone / cervical + systemic / in life observation / body weight / fetal weight
[33] = group: developmental, developmental / developmental malformation / bone / cervical + systemic / in life observation / body weight / fetal weight + developmental…
[34] = systemic / in life observation / body weight / body weight + systemic / in life observation / body weight / body weight gain + systemic / …
[35] = systemic / clinical chemistry / aspartate aminotransferase (ast/sgot) / aspartate aminotransferase (ast/sgot)
[36] = group: developmental, systemic / in life observation / body weight / fetal weight
[37] = group: maternal, reproductive / reproductive performance / aborted / aborted + systemic / in life observation / clinical signs / body surface staining + …

In the case of `CCCOCC(=Nc1ccc(Cl)cc1C(F)(F)F)n1ccnc1` [Triflumizole], the LOAEL ([1]; systemic / in life observation / body weight / body weight + systemic / in life observation / body weight / body weight gain) is reported as 381 mg/kg/day, the LEL [1, 18] is reported as 381 mg/kg/day and the NEL [1, 18] is reported as 33.1 mg/kg/day. It also gave an NOAEL [1, 18] of 33.1 mg/kg/day, an LEL [2, 19] of 4.1 mg/kg/day and an NEL [2, 19] of under 4.1 mg/kg/day. For the same molecule, the LOAEL ([2]; systemic / pathology microscopic / liver / hypertrophy + systemic / pathology microscopic / liver / vacuolization) was 40.9 mg/kg/day, the NOAEL ([2]; systemic / pathology microscopic / liver / hypertrophy + systemic / pathology microscopic / liver / vacuolization + systemic / hematology / …) was 4.1 mg/kg/day and the LEL [3, 20] was 1.4 mg/kg/day. It also gave an NEL [3, 20] of under 1.4 mg/kg/day, an LOAEL [3, 21] of 176 mg/kg/day and an NOAEL [3, 21] of 15.3 mg/kg/day. The LEL [4] was 34.1 mg/kg/day, the LOAEL [4] was 34.1 mg/kg/day and the NEL [4] was 10 mg/kg/day. It also gave an NOAEL [4] of 10 mg/kg/day, an LEL [5, 22] of 100 mg/kg/day and an LOAEL [5, 22] of 100 mg/kg/day. It also gave an NEL [5, 23] of 50 mg/kg/day, an NOAEL [5, 23] of 50 mg/kg/day and an LEL [5, 24] of 100 mg/kg/day. It also gave an LOAEL [5, 24] of 100 mg/kg/day, an NEL [5, 24] of 50 mg/kg/day and an NOAEL [5, 24] of 50 mg/kg/day. It also gave an LOAEL ([6]; group: offspring, developmental / developmental malformation / trunk / [other] + developmental / developmental malformation / ureter / hydroureter) of 8.5 mg/kg/day, an LEL [6, 25] of 8.5 mg/kg/day and an NEL [6, 25] of 3.5 mg/kg/day. It also gave an NOAEL [6, 25] of 3.5 mg/kg/day, an LOAEL [6, 26] of over 8.5 mg/kg/day and an NOAEL [6, 26] of at least 8.5 mg/kg/day. The LEL [6, 27] was 1.5 mg/kg/day, the NEL [6, 27] was under 1.5 mg/kg/day and the NOAEL ([6]; group: reproductive, reproductive / reproductive performance / gestational length / gestational length) was 3.5 mg/kg/day. For the same molecule, the LOAEL ([6]; group: reproductive, reproductive / reproductive performance / gestational length / gestational length + reproductive / offspring survival early / litter size / …) was 8.5 mg/kg/day, the NEL ([6]; group: reproductive, reproductive / reproductive performance / gestational length / gestational length + reproductive / reproductive performance / mating / …) was 1.5 mg/kg/day and the LEL ([6]; group: reproductive, reproductive / reproductive performance / mating / mating) was 3.5 mg/kg/day. It also gave an LEL [7, 28] of 14.4 mg/kg/day, an LOAEL [7, 28] of over 59.4 mg/kg/day and an NEL [7, 28] of 3.5 mg/kg/day. The NOAEL [7, 28] was at least 59.4 mg/kg/day, the LOAEL [7, 29] was 3.5 mg/kg/day and the NOAEL [7, 29] was under 3.5 mg/kg/day. It also gave an LEL [7, 30] of 3.5 mg/kg/day, an NEL [7, 30] of under 3.5 mg/kg/day and an LOAEL [8, 31] of 397 mg/kg/day. It also gave an NEL [8, 31] of 3.8 mg/kg/day, an NOAEL [8, 31] of 40.3 mg/kg/day and an LEL ([8]; systemic / organ weight / liver / relative to body weight + systemic / urinalysis / glucose / glucose) of 40.3 mg/kg/day. For the same molecule, the LEL [9] was 67.4 mg/kg/day, the LOAEL [9] was 67.4 mg/kg/day and the NEL [9] was 16.2 mg/kg/day. For the same molecule, the NOAEL [9] was 16.2 mg/kg/day, the LEL [10, 32] was 35 mg/kg/day and the LOAEL [10, 32] was 35 mg/kg/day. It also gave an NEL [10, 33] of 10 mg/kg/day, an NOAEL [10, 33] of 10 mg/kg/day and an LEL [10, 24] of 35 mg/kg/day. The LOAEL [10, 24] was 35 mg/kg/day, the NEL [10, 24] was 10 mg/kg/day and the NOAEL [10, 24] was 10 mg/kg/day.
`COC(=O)c1cccc(C)c1S(=O)(=O)NC(=O)Nc1nc(OCC(F)(F)F)nc(N(C)C)n1` [Triflusulfuron-methyl] gave an LEL [11] of 349 mg/kg/day, an LOAEL [11] of 349 mg/kg/day and an NEL [11] of 20.9 mg/kg/day. It also gave an NOAEL [11] of 20.9 mg/kg/day, an LEL [12] of 127 mg/kg/day and an LOAEL [12] of 127 mg/kg/day. The NEL [12] was 6.2 mg/kg/day, the NOAEL [12] was 6.2 mg/kg/day and the LEL [13] was 147 mg/kg/day. It also gave an LOAEL [13] of 147 mg/kg/day, an NEL [13] of 3.9 mg/kg/day and an NOAEL [13] of 3.9 mg/kg/day. For the same molecule, the LEL [14, 34] was 26.9 mg/kg/day, the NEL [14, 34] was 1 mg/kg/day and the LOAEL ([14]; systemic / organ weight / liver / relative to body weight + systemic / pathology microscopic / liver / hypertrophy) was 95.5 mg/kg/day. It also gave an NOAEL ([14]; systemic / organ weight / liver / relative to body weight + systemic / pathology microscopic / liver / hypertrophy + systemic / clinical …) of 27.7 mg/kg/day, an LEL [15] of 30.6 mg/kg/day and an LOAEL [15] of 30.6 mg/kg/day. The NEL [15] was 4.06 mg/kg/day, the NOAEL [15] was 4.06 mg/kg/day and the LEL [16, 35] was 7.71 mg/kg/day. The NEL [16, 35] was under 7.71 mg/kg/day, the LOAEL ([16]; systemic / in life observation / body weight / body weight gain + systemic / in life observation / food consumption / food efficiency) was 133 mg/kg/day and the NOAEL ([16]; systemic / in life observation / body weight / body weight gain + systemic / in life observation / food consumption / food efficiency + …) was 6.56 mg/kg/day. It also gave an LEL [17, 36] of 270 mg/kg/day, an LOAEL [17, 36] of 270 mg/kg/day and an NEL [17, 36] of 90 mg/kg/day. It also gave an NOAEL [17, 36] of 90 mg/kg/day, an LEL [17, 37] of 270 mg/kg/day and an LOAEL [17, 37] of 270 mg/kg/day. For the same molecule, the NEL [17, 37] was 90 mg/kg/day and the NOAEL [17, 37] was 90 mg/kg/day.
